Data on 103 compounds can be found in PubChem BioAssay AID1996.

Structures are written as SMILES. Converted amounts (≈) assume the structure as drawn. A value given as a limit tells only on which side of the number the result lay.

For the data set the following is noted: buffer; pH 7.4; 200.0 µM.
Take `Cc1ccc(C(=O)CSc2nc(C(C)C)nc3ccccc23)cc1`: the solubility (kinetic) stood at 0.6 µg/mL (≈ 1.78 µM).

Regarding `Cc1ccc(NC(=O)c2ccc3nc[nH]c3c2)nc1`, the kinetic solubility was > 37.8 µg/mL. With `COc1cc(C(=O)OCC#N)ccc1OCc1c(C)noc1C` the figure was 4 µg/mL (≈ 12.6 µM). With `CC(C)c1ccc(NC(=O)CCCC(=O)NCCc2ccccc2)cc1` the figure was 6 µg/mL (≈ 17 µM); with `CC(=O)c1ccc(NC(=S)N2CCCC2)cc1`, 35.4 µg/mL (≈ 143 µM).

Consider `Cc1cc(C)nc(/N=c2/ssnc2Cl)c1`, for which the kinetic solubility is 1.8 µg/mL (≈ 6.98 µM). With `Cc1ccccc1OCCC(=O)N1CCN(S(=O)(=O)c2ccccc2F)CC1` the figure was 38.5 µg/mL (≈ 94.7 µM); with `CCCNC(=O)Nc1cc(S(=O)(=O)CC)ccc1O`, 37.9 µg/mL (≈ 132 µM); with `Cc1ccc(C)c2sc(N)nc12`, > 26.7 µg/mL. In turn, `COc1ccccc1CNC(c1ccccc1)c1ccccc1` returned a solubility (kinetic) of 3.3 µg/mL (≈ 10.9 µM). With `COc1ccc(-c2cc3cc(OC)c(OC)cc3c(C)n2)cc1C` the figure was < 0.7 µg/mL; with `O=C1Cc2ccccc2C(=O)N1c1ccccc1`, 35.1 µg/mL (≈ 148 µM); with `COCC(C)N1C(=O)Cc2c1nc(N)c1c(N)nc(N3CCN(c4ccccc4F)CC3)c(C#N)c21` (stereo not drawn), 1.7 µg/mL (≈ 3.47 µM). On to `COc1ccc(OC)c(CN2CCCC(C(=O)c3sccc3C)C2)c1` (stereo not drawn), for which the solubility (kinetic) is > 53.9 µg/mL.

`Cc1nc(SCC(=O)N2CCOCC2)c2c(=O)n(C)c(=O)n(CC(C)C)c2n1` yielded a kinetic solubility of 47.8 µg/mL (≈ 117 µM). In turn, `COc1ccccc1NC(=S)N(Cc1cccs1)C1CCCC1` registered a solubility (kinetic) of 6 µg/mL (≈ 17.3 µM).

`CCc1c(C(=O)OCc2ccccc2)[nH]c(C)c1C` showed a solubility (kinetic) of 1.3 µg/mL (≈ 5.05 µM). Next, `COc1cc(OC)c(OC)cc1CNCc1ccco1`: 38.7 µg/mL (≈ 140 µM). With `CCOC(=O)Cn1c(=O)n(Cc2ccccc2)c(=O)c2cccnc21` the figure was 7.6 µg/mL (≈ 22.4 µM); with `Cc1ccc2c(c1)c(-c1csc(N)n1)c(C)n2C`, 13.4 µg/mL (≈ 52.1 µM); with `O=C(Nc1ccc(Cl)cc1)c1ccc2ncsc2c1`, 3.1 µg/mL (≈ 10.7 µM). Turning to `Cc1ccc(C(=O)NCCCNC(=O)COc2ccc(Cl)cc2)cn1`, the kinetic solubility is 49.7 µg/mL (≈ 137 µM). With `CN1CCN(NC(=O)c2cccc(C(F)(F)F)c2)CC1` the figure was > 43.1 µg/mL; with `Cc1ccc2cccc(OCC(=O)N3CCc4ccccc43)c2n1`, < 0.3 µg/mL; with `N#Cc1ccc(S(=O)(=O)Nc2ccccc2N2CCOCC2)cc1`, > 51.5 µg/mL. With `Cc1ccc(S(=O)(=O)N(C)C)cc1NC(=O)Nc1ccccc1` the figure was < 0.2 µg/mL; with `CC(=O)Nc1ccccc1C(=O)OCC(=O)Nc1ncccn1`, > 47.1 µg/mL; with `CCC(=O)NC1CCN(C(=S)NC)CC1`, > 34.4 µg/mL. Next, `Nc1cc(=O)[nH]c(SCC(=O)Nc2ccc(S(=O)(=O)N3CCCC3)cc2)n1`: > 61.4 µg/mL; `COc1ccc(OC(=O)c2cnc3n(c2=O)CCS3)cc1`: 35 µg/mL (≈ 115 µM); `COc1ccccc1CC(=O)NC1CCN(Cc2ccccc2)CC1`: > 50.8 µg/mL.

Consider `CC1CC(C)(C)N2C(=O)C(=C(C#N)C#N)c3cccc1c32` (stereo not drawn), for which the solubility (kinetic) is 1.2 µg/mL (≈ 4.33 µM). Next, `O=S(=O)(Cc1ccccc1)NCCc1ccc(F)cc1`: 34.3 µg/mL (≈ 117 µM); `CSc1nc(SC(C)C(=O)O)c2c3c(sc2n1)COC(C)(C)C3` (stereo not drawn): > 55.6 µg/mL. With `Cc1cccc(C)c1NC(=O)C(=O)NCCc1c[nH]c2ccccc12` the figure was 1.3 µg/mL (≈ 3.88 µM); with `N=C1C=CC=C2C1=NC1(CCCCC1)N2O`, > 32.6 µg/mL; with `O=C(Nc1nc2c(F)c(F)c(F)cc2s1)c1ccco1`, < 0.3 µg/mL. With `Cc1ccc(N2C(=O)CC(Nc3cccc4ccccc34)C2=O)cc1` (stereo not drawn) the figure was 3.8 µg/mL (≈ 11.5 µM); with `CC(=O)N/C(=N/c1nc(C)cc(C)n1)Nc1ccc(F)cc1F`, 1.6 µg/mL (≈ 5.01 µM); with `Cc1ccccc1Sc1ccc([N+](=O)[O-])cn1`, 7.4 µg/mL (≈ 30 µM). `O=C(COC(=O)/C=C/c1ccc(Br)o1)Nc1cccc(S(=O)(=O)N2CCOCC2)c1`: the solubility (kinetic) was found to be 5.9 µg/mL (≈ 11.8 µM).

As for `COc1ccc(/C=C2\N=C(C)OC2=O)cc1[N+](=O)[O-]`, the solubility (kinetic) was 25.7 µg/mL (≈ 98 µM).

Turning to `COC(c1ccccc1)c1nnc(CCC(=O)NC2CCCCC2)o1` (stereo not drawn), the kinetic solubility is > 51.5 µg/mL. Next, `COc1ccc(NC(=O)CSc2ccc3c(c2)OCCO3)cc1`: 46.1 µg/mL (≈ 139 µM); `COc1ccc(S(=O)(=O)NCCCN2CCCC2=O)c(OC)c1`: > 51.4 µg/mL; `Cc1ccc(S(=O)(=O)NC2=NCN(C)CN2)cc1[N+](=O)[O-]`: > 47 µg/mL. Consider `CCN(CC)C1=C(Cl)C(=O)C(Cl)C12OCCO2` (stereo not drawn), for which the solubility (kinetic) is > 42 µg/mL. With `O=C(c1ccc2nccnc2c1)N1CCN(c2ccccc2)CC1` the figure was > 47.8 µg/mL; with `CCCc1cc(=O)oc2c(CN(CC)CC)c(O)c(Cl)cc12`, > 48.6 µg/mL; with `CC(=O)Nc1ccc(Nc2nc(C)cc(C)n2)cc1`, > 38.4 µg/mL.

`O=C(CN1CCCCCC1)Nc1ccccc1Cl` showed a kinetic solubility of 24.9 µg/mL (≈ 93.3 µM).

With `O=C(Nc1cc(S(=O)(=O)Nc2ccccc2Cl)ccc1O)c1ccc(F)cc1F`, the kinetic solubility was determined as 3.3 µg/mL (≈ 7.52 µM). Next, `O=C(c1ccc(Cl)cc1)N1CCN(c2cccc3[nH]ccc23)CC1`: 35.6 µg/mL (≈ 105 µM); `O=C(Nc1nc2cc3c(cc2s1)OCCO3)c1cccs1`: 0.6 µg/mL (≈ 1.88 µM); `Nc1ccc(C2(c3ccc(N)cc3)OC(=O)c3ccccc32)cc1`: 32.1 µg/mL (≈ 101 µM). Next, `O=C(COC(=O)c1ccc(Cl)nc1)NCCc1ccc(Cl)cc1`: 21.4 µg/mL (≈ 60.6 µM); `COc1ccc(Cl)cc1NC(=S)Nc1cccnc1`: 38.1 µg/mL (≈ 130 µM). Next, `CN(C)S(=O)(=O)c1ccc(NC=C(C#N)C#N)cc1`: 26.3 µg/mL (≈ 95.2 µM); `O=C(Nc1ccccc1[N+](=O)[O-])C1COc2ccccc2O1` (stereo not drawn): 1 µg/mL (≈ 3.33 µM); `O=C(CCC(=O)c1ccccc1)NCc1ccccc1`: > 40.1 µg/mL. `Cc1nc2ccc(NC(=O)c3ccc(=O)[nH]c3)cc2s1` displayed a solubility (kinetic) of 13.7 µg/mL (≈ 48 µM). With `Cc1nn(C)c(C)c1NC(=O)COc1ccc(F)cc1Br` the figure was > 53.4 µg/mL; with `O=C(NCCCn1ccnc1)c1c(F)cccc1F`, 38 µg/mL (≈ 143 µM); with `Cc1cc(C)nc(NC(=O)c2ccccc2O)n1`, > 36.5 µg/mL. With `Cn1nccc1NC(=O)Nc1ccc(OC(F)(F)F)cc1` the figure was > 45 µg/mL. With `O=C1ON=C(c2ccc([N+](=O)[O-])cc2)/C1=C/c1ccccc1O` the figure was > 46.5 µg/mL; with `O=C(NC1CC1)C1CC(=O)N(c2ccccc2)C1` (stereo not drawn), > 36.6 µg/mL.

Regarding `CCCNc1nc(Cl)nc(NC(C)(C)C)n1`, the solubility (kinetic) worked out at 17.1 µg/mL (≈ 70.2 µM). In turn, `COc1ccc(CCNC(=O)C(=O)NCc2cccs2)cc1OC` had a solubility (kinetic) of 21.4 µg/mL (≈ 61.4 µM). With `Cc1ccc(OCCNC(=O)CNC(=O)c2ccccc2Cl)cc1` the figure was > 52 µg/mL; with `Cc1ccc(C(=O)N2CCN(C34CC5CC(CC(C5)C3)C4)CC2)o1`, > 49.3 µg/mL; with `Cc1ccc(S(=O)(=O)N(C)CC(=O)NCC(=O)Nc2ccc(F)c(F)c2F)cc1`, 6.4 µg/mL (≈ 14.9 µM). Next, `CCc1cc2ccccc2nc1Cl`: < 0.4 µg/mL; `CC12CCC(C(=O)NCc3ccc(F)cc3)(OC1=O)C2(C)C` (stereo not drawn): 44.2 µg/mL (≈ 145 µM). Next, `CC(C)c1cc(=O)[nH]c(SCC(=O)NC2CCCC2)n1`: > 44.3 µg/mL; `CC(Sc1ncccn1)C(=O)NC1CCCC1` (stereo not drawn): > 37.7 µg/mL. In the case of `COc1cccc(NC(=O)c2ccccc2Br)c1`, the solubility (kinetic) is > 45.9 µg/mL. With `COc1ccc(CCNC(=O)c2ccc(Cl)nc2)cc1` the figure was 36.5 µg/mL (≈ 126 µM); with `N#Cc1c(-c2ccccc2)[nH]c(=O)[nH]c1=O`, > 32 µg/mL; with `CN(Cc1cccs1)c1nc(-c2cccnc2)nc2ccccc12`, 3 µg/mL (≈ 9.02 µM). Next, `Cc1onc(-c2ccccc2)c1-c1ccc(S(N)(=O)=O)cc1`: > 47.2 µg/mL; `Cc1sc(N2C(=O)C3C(C2=O)[C@H]2C=C[C@@H]3C2)c(C#N)c1C` (stereo partly drawn): 25.6 µg/mL (≈ 85.8 µM). Next, `O=C(COC(=O)C1CC1)Nc1ccc2[nH]c(=O)[nH]c2c1`: > 41.3 µg/mL; `O=C(CSc1ccc(Cl)cc1)NCc1ccco1`: 16.3 µg/mL (≈ 57.8 µM); `Cc1cccc(C)c1OCC(=O)Nc1ccc2c(c1)C(=O)NC2=O`: 1.2 µg/mL (≈ 3.7 µM). In turn, `CC(C)Oc1ccc(/C=C(\C#N)C(=O)NC2CC2)cc1` gave a solubility (kinetic) of 13.4 µg/mL (≈ 49.6 µM). Next, `C[N+](C)(C)CCOC(=O)CBr.[Br-]`: > 45.8 µg/mL; `Cn1cc(C(O)CN2CCCCC2)c2ccccc21` (stereo not drawn): 38.1 µg/mL (≈ 147 µM). Next, `N#Cc1c(/N=C/c2ccc(-c3ccccc3C(=O)O)o2)sc2c1CCCC2`: > 56.5 µg/mL; `COc1ccc(C(=O)Nc2ccccc2C(=O)N2CCOCC2)cc1`: > 51.1 µg/mL; `C=CCN(Cc1ccc(Cl)s1)C(=O)c1ccc(F)c(S(=O)(=O)N2CCOCC2)c1`: 23.8 µg/mL (≈ 51.9 µM). With `COc1ccc(C2C(C#N)=C(N)Oc3cc(N)ccc32)cc1` (stereo not drawn) the figure was 27.4 µg/mL (≈ 93.4 µM); with `Nc1nc(NCCO)nc(NC2CCCCC2)c1[N+](=O)[O-]`, 39.1 µg/mL (≈ 132 µM); with `CC(C)NC(=O)c1ccc2c(=O)n(CC3CCCO3)c(=S)[nH]c2c1` (stereo not drawn), 4.4 µg/mL (≈ 12.7 µM). Regarding `CCC(=O)N(Cc1cc2ccccc2[nH]c1=O)c1ccccc1OC`, the kinetic solubility came to 32.2 µg/mL (≈ 95.7 µM). For `CCN(c1ccccc1)S(=O)(=O)c1cc(NC(=O)CN2CCN(C)CC2)ccc1Cl.O=C(O)C(=O)O`, the kinetic solubility was > 81.2 µg/mL. With `O=C(c1cc(-c2ccc(Cl)cc2)on1)N1CCCC1` the figure was 1.4 µg/mL (≈ 5.06 µM); with `Cc1ccc2nc(NCCC(=O)O)nc(-c3ccccc3)c2c1`, > 46.1 µg/mL. With `N#C/C(=C\c1ccncc1)c1ccc(NC(N)=O)cc1` the figure was 13.8 µg/mL (≈ 52.2 µM). Next, `CC(NC(=O)COC(=O)c1ccc2c(c1)OCCO2)c1ccccc1` (stereo not drawn): 11.4 µg/mL (≈ 33.4 µM). As to `Cc1cc(NC(=O)/C=C\C(=O)O)c([N+](=O)[O-])cc1C`, the solubility (kinetic) came out at 39.4 µg/mL (≈ 149 µM).

Turning to `N#C/C(=C\c1c[nH]c2ccccc12)C(=O)NC1CC1`, the solubility (kinetic) stood at 11.4 µg/mL (≈ 45.4 µM).

Consider `O=C(Nc1cccc2ccccc12)c1cccc(F)c1`, for which the solubility (kinetic) turned out to be 5.8 µg/mL (≈ 21.9 µM).
